Calls of active or inactive are those of the source. No cut-off for these calls is given here.
How the values were obtained:
B16-F10 [1] = assay: Induction of apoptosis in mouse B16-F10 cells assessed as late apoptotic cells at 4 uM incubated for 48 hrs by Annexin V-FITC/PI staining based flow cytometry analysis (reference value: 5.02 %); format: functional
MDA-MB-231 = assay: Antiproliferative activity against human MDA-MB-231 cells assessed as cell growth inhibition incubated for 48 hrs by MTT assay; format: functional, cell-based; conditions: MDA-MB-231, 48 h
B16-F10 [2] = assay: Induction of cell cycle arrest in mouse B16-F10 cells assessed as accumulation of cells at S phase at 4 uM incubated for 48 hrs by PI staining based flow cytometry analysis (reference value: 24.04%); format: functional
HepG2 = assay: Antiproliferative activity against human HepG2 cells assessed as cell growth inhibition incubated for 48 hrs by MTT assay; format: functional, cell-based; conditions: HepG2, 48 h
B16-F10 [3] = assay: Immunomodulatory activity in mouse B16-F10 cells implanted in C57BL/6J mouse assessed as percentage of CD3 positive CD8 positive cells in tumor at 20 mg/kg, ip administered once daily for 9 days by flow cytometric analysis (reference value: 0.44 %); format: functional; conditions: time 9 day
B16-F10 [4] = assay: Induction of cell cycle arrest in mouse B16-F10 cells assessed as accumulation of cells at G2/M phase at 4 uM incubated for 48 hrs by PI staining based flow cytometry analysis (reference value: 5.87%); format: functional
B16-F10 [5] = assay: Induction of apoptosis in mouse B16-F10 cells assessed as early apoptotic cells at 4 uM incubated for 48 hrs by Annexin V-FITC/PI staining based flow cytometry analysis (reference value: 0.45 %); format: functional
HCT-116 = assay: Antiproliferative activity against human HCT-116 cells assessed as cell growth inhibition incubated for 48 hrs by MTT assay; format: functional, cell-based; conditions: HCT-116, 48 h
B16-F10 [6] = assay: Induction of apoptosis in mouse B16-F10 cells assessed as viable cells at 4 uM incubated for 48 hrs by Annexin V-FITC/PI staining based flow cytometry analysis (reference value: 92.3%); format: functional; conditions: read-out: Activity
4T1 = assay: Antiproliferative activity against mouse 4T1 cells assessed as cell growth inhibition incubated for 48 hrs by MTT assay; format: functional, cell-based; conditions: 4T1, 48 h
[7] = target: T1, Histone deacetylase 3 (Mus musculus) (UniProt O88895); assay: Inhibition of HDAC3 in mouse B16-F10 cells assessed as upregulation of Ac-H3 level at 3 uM incubated for 24 hrs by Western blotting analysis; format: cell-based
T1 sequence (whole entry): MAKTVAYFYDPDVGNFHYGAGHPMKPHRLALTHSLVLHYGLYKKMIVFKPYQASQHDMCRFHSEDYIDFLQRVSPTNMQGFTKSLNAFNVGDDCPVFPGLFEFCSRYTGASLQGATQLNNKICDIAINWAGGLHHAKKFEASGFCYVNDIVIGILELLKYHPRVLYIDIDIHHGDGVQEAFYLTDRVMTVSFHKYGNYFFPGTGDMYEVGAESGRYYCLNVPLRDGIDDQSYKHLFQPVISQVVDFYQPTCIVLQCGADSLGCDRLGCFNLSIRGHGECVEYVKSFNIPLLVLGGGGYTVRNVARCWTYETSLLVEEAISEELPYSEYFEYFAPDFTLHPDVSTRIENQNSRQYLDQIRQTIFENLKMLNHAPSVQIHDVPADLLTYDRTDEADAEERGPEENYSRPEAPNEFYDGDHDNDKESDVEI

B16-F10 [8] = assay: Antitumor activity against mouse B16-F10 cells implanted in C57BL/6J mouse assessed as tumor growth inhibition at 20 mg/kg, ip administered once daily for 9 days in presence of MS-275; format: functional; conditions: B16-F10, 216 h, time 9 day, read-out: TGI
B16-F10 [9] = assay: Immunomodulatory activity in mouse B16-F10 cells implanted in C57BL/6J mouse assessed as percentage of CD3 positive CD8 positive cells in tumor at 10 mg/kg, ip administered once daily for 9 days in presence of MS-275 by flow cytometric analysis (reference value: 0.44 %); format: functional; conditions: time 9 day
[10] = Toxicity in C57BL/6J mouse implanted with mouse B16-F10 cells assessed as body weight loss at 20 mg/kg, ip administered once daily for 9 days; format: organism-based; conditions: in vivo, 216 h, time 9 day
[11] = Toxicity in C57BL/6J mouse implanted with mouse B16-F10 cells assessed as body weight loss at 20 mg/kg, ip administered once daily for 5 days in presence of MS-275; format: organism-based; conditions: in vivo, 120 h, time 5 day
A-375 = assay: Antiproliferative activity against human A-375 cells assessed as cell growth inhibition incubated for 48 hrs by MTT assay; format: functional, cell-based; conditions: A-375, 48 h
[12] = Toxicity in C57BL/6J mouse implanted with mouse B16-F10 cells assessed as animal death at 20 mg/kg, ip administered once daily for 5 days in presence of MS-275; format: organism-based; conditions: in vivo, 120 h, time 5 day
[13] = target: T2, Programmed cell death protein 1/Programmed cell death 1 ligand 1 (Homo sapiens, UniProt Q9NZQ7); assay: Inhibition of PD-1/PD-L1 (unknown origin) interaction assessed as inhibition rate at 1 uM by HTRF assay relative to control; format: protein-complex assay
T2 sequence (Q15116 whole entry): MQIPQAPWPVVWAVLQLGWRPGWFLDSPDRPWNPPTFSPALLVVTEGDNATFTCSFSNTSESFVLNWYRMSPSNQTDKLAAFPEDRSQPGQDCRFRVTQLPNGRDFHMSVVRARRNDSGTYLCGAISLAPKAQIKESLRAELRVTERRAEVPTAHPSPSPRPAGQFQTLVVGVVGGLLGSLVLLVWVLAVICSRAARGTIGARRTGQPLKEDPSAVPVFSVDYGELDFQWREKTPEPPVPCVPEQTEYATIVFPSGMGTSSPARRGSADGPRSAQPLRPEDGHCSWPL
T2 sequence (Q9NZQ7 whole entry): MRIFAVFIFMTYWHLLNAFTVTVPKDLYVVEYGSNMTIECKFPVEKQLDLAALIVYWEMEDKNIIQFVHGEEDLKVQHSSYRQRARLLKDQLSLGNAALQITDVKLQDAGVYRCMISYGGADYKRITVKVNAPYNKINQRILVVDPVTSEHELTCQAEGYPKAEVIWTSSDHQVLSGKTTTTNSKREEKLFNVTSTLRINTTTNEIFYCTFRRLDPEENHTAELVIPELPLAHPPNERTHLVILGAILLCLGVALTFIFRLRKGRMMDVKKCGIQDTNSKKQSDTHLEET

B16-F10 [14] = assay: Induction of cell cycle arrest in mouse B16-F10 cells assessed as accumulation of cells at G0/G1 phase at 4 uM incubated for 48 hrs by PI staining based flow cytometry analysis (reference value: 70.09%); format: functional
B16-F10 [15] = assay: Antitumor activity against mouse B16-F10 cells implanted in C57BL/6J mouse assessed as tumor growth inhibition at 20 mg/kg, ip administered once daily for 9 days; format: functional; conditions: B16-F10, 216 h, time 9 day, read-out: TGI
Histone deacetylase 3 = Histone deacetylase 3 (Homo sapiens, UniProt O15379); assay: Inhibition of human recombinant HDAC3 using Ac-Leu-Gly-Lys (Ac)-AMC as substrate preincubated for 10 mins followed by substrate addition and measured after 45 mins by TECAN microtiter plate reader analysis
Chain of Histone deacetylase 3 (O15379 whole entry): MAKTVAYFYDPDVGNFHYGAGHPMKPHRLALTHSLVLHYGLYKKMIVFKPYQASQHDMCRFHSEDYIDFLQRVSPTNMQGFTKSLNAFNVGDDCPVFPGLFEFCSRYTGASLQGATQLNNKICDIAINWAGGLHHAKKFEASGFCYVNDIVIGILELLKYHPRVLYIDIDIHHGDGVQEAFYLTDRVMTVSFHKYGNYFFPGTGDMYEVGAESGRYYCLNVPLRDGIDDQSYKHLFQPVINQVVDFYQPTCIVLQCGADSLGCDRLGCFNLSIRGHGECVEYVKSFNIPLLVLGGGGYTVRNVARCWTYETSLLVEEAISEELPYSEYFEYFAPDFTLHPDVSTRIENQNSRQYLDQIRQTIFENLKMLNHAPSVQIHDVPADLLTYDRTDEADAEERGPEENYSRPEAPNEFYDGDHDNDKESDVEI

B16-F10 [16] = assay: Antiproliferative activity against mouse B16-F10 cells assessed as cell growth inhibition incubated for 48 hrs by MTT assay; format: functional, cell-based; conditions: B16-F10, 48 h
B16-F10 [17] = assay: Immunomodulatory activity in mouse B16-F10 cells implanted in C57BL/6J mouse assessed as percentage of CD3 positive CD4 positive cells in tumor at 10 mg/kg, ip administered once daily for 9 days in presence of MS-275 by flow cytometric analysis (reference value: 0.20 %); format: functional; conditions: time 9 day
B16-F10 [18] = assay: Immunomodulatory activity in mouse B16-F10 cells implanted in C57BL/6J mouse assessed as percentage of CD3 positive CD4 positive cells in tumor at 20 mg/kg, ip administered once daily for 9 days by flow cytometric analysis (reference value: 0.20 %); format: functional; conditions: time 9 day
[19] = target: T2, Programmed cell death protein 1/Programmed cell death 1 ligand 1; assay: Inhibition of PD-1/PD-L1 (unknown origin) interaction assessed as inhibition rate by HTRF assay; format: protein-complex assay
B16-F10 [20] = assay: Induction of apoptosis in mouse B16-F10 cells assessed as necrotic cells at 4 uM incubated for 48 hrs by Annexin V-FITC/PI staining based flow cytometry analysis (reference value: 2.24%); format: functional
B16-F10 [21] = assay: Immunomodulatory activity in mouse B16-F10 cells implanted in C57BL/6J mouse assessed as percentage of CD3 positive CD8 positive cells in tumor at 10 mg/kg, ip administered once daily for 9 days in presence of NP19 by flow cytometric analysis (reference value: 0.44 %); format: functional; conditions: time 9 day
B16-F10 [22] = assay: Immunomodulatory activity in mouse B16-F10 cells implanted in C57BL/6J mouse assessed as percentage of CD3 positive CD4 positive cells in tumor at 10 mg/kg, ip administered once daily for 9 days in presence of NP19 by flow cytometric analysis (reference value: 0.20 %); format: functional; conditions: time 9 day
B16-F10 [23] = assay: Antitumor activity against mouse B16-F10 cells implanted in C57BL/6J mouse assessed as tumor growth inhibition at 20 mg/kg, ip administered once daily for 9 days in presence of NP19; format: functional; conditions: B16-F10, 216 h, time 9 day, read-out: TGI

| SMILES | Activity (B16-F10 [1]) | IC50 (MDA-MB-231) | Activity (B16-F10 [2]) | IC50 (HepG2) | Activity (B16-F10 [4]) | Activity (B16-F10 [5]) | IC50 (HCT-116) | viability at 4 µM (B16-F10 [6]) | IC50 (A-375) | IC50 [13] | Activity (B16-F10 [14]) | Activity (B16-F10 [20]) | further results |
| --- | --- | --- | --- | --- | --- | --- | --- | --- | --- | --- | --- | --- | --- |
| Cc1c(COc2cc(OCc3cccc(C#N)c3)c(CNC(C)(C)C(=O)O)cc2Cl)cccc1-c1ccccc1 | 3.95% | > 50 µM | 24.28% | > 50 µM | 5.05% | 0.47% | > 50 µM | 93.6% | > 50 µM | 0.0683 µM | 70.67% | 1.96% | Activity (B16-F10 [3]): 2.68%; IC50 (4T1): > 50 µM; inhibition [7]: inactive; inhibition in vivo at 20 mg/kg (B16-F10 [8]): 37%; Activity (B16-F10 [9]): 3.34%; Activity [10]: Non-toxic; Activity [11]: Toxic; Activity [12]: Toxic; inhibition in vivo at 20 mg/kg (B16-F10 [15]): 30.8%; IC50 (Histone deacetylase 3): > 10 µM; IC50 (B16-F10 [16]): > 50 µM; Activity (B16-F10 [17]): 1.89%; Activity (B16-F10 [18]): 0.78%; IC50 [19]: 0.0683 µM |
| Nc1ccccc1NC(=O)c1ccc(CNC(=O)OCc2cccnc2)cc1 [ENTINOSTAT] | 12.8% | 30.3 µM | 5.79% | 6.32 µM | 6.59% | 7.43% | 3.54 µM | 74.5% | 4.91 µM | > 10 µM | 87.62% | 5.25% | Activity (B16-F10 [21]): 3.34%; Activity (B16-F10 [22]): 1.89%; inhibition in vivo at 20 mg/kg (B16-F10 [23]): 37% |

— ChEMBL document CHEMBL6109156, “Discovery of Dual PD-L1/HDAC3 Inhibitors for Tumor Immunotherapy” (J Med Chem, 2025)
